Measured values reported in patent publication US12258360B2, “Compositions and methods for treatment of anticancer-drug resistant cancers” (THE GEORGE WASHINGTON UNIVERSITY, priority 2020, dated 2025).
Where a name gives a salt, the structure may show the parent alone. Read-outs that look alike come from different tables or passages of the source.

Experiments:
[1] = target: T1, And-1 protein fused to a luciferase reporter gene (Homo sapiens, UniProt O75717); experiment: quantitative HTS (qHTS) of LOPAC library in HEK293T-And-1-Luc cells (luciferase read-out of And-1 level); assay type: cell-based; settings: HTS assay
T1 sequence (O75717 1-1129): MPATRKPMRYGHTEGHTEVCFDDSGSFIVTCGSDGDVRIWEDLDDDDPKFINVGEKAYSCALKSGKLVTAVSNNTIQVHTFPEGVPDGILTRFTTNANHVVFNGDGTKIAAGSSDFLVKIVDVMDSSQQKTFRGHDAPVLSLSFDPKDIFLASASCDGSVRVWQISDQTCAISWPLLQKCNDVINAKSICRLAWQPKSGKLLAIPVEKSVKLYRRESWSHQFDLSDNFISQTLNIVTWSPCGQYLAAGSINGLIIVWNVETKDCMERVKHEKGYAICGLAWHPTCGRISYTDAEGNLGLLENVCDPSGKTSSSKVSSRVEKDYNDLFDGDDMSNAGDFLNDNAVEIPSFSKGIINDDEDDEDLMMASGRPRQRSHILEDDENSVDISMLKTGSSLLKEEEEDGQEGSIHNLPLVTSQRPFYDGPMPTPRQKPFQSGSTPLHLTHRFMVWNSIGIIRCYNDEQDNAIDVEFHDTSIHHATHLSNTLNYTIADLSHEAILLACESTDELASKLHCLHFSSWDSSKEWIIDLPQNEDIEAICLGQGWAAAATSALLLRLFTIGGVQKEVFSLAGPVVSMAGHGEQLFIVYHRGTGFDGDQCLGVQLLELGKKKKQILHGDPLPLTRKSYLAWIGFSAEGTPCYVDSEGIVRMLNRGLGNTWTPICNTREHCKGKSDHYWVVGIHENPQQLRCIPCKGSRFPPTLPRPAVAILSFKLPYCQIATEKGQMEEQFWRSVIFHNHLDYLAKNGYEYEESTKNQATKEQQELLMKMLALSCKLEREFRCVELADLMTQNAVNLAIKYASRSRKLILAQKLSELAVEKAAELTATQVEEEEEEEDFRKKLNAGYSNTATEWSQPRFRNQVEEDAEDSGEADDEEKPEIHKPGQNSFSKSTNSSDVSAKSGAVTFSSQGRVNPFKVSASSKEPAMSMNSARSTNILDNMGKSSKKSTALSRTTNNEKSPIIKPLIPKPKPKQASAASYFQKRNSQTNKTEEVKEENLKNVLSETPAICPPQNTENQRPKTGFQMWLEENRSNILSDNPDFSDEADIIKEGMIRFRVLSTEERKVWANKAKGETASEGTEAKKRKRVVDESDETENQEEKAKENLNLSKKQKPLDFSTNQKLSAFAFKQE
Description: To identify And-1 specific pharmacologic inhibitors, a high-throughput screening (HTS) assay was established to identify small molecules that can inhibit And-1 by inducing its degradation. For this assay, two stable cell lines, a HEK293T-And-1-Luc cell expressing And-1 protein fused to a luciferase reporter gene, and a HEK293T-Luc cell expressing luciferase only were generated (FIG. 13A). HEK293T-And-1-Luc cells allowed for assessment of And-1 protein levels by measuring luciferase activity in a high throughput manner.

[2] = test system: SREBP target gene SCD-1; experiment: RT-PCR detection of SCD-1 gene expression in AN3CA cells; assay type: cell-based, human; settings: 10 μM; for activity of reducing SCD-1 gene expression (in words) / Relative mRNA expression of SCD-1: AN3CA cells; for Relative mRNA expression of SCD-1: 48 h, DMSO = 1
Experimental: • 1. Experimental reagent • 2. The experimental steps are as follows: • 2.1 AN3CA cell recovery and culture (10% serum 1% double antibody in MEM medium); • 2.2 passages (passage at a ratio of 1:2); • 2.3 Place 6 well plates when the cell status is good, 5×10^5Well, culture overnight; • 2.4 adding medicine: diluting the final concentration of the drug with a culture medium to 10 μM, 2 mL/well; • 2.5 adding medicine for 48 h, and then extracting RNA; • 2.5.1 removing the culture medium, adding 0.5 mL/hole Trizol to lyse the cells, repeatedly blowing and beating the cells by a pipette after 5 min, completely lysing the cells, transferring the cells into a 1.5 mL EP tube without RNase, and standing the tube for 5 min; • 2.5.2 adding 200 µl chloroform, shaking rapidly, mixing, standing for 10 min 12000 rpm/15 min; • 2.5.3 carefully taking out the supernatant, transferring the supernatant into an EP tube, adding isopropanol with the same volume, reversing, uniformly mixing, standing for 10 min, and centrifuging at 12000 rpm/10 min; • 2.5.4 removing the supernatant, adding 1 mL of 75% ethanol for washing, centrifuging at 8000 rpm/5 min once, carefully removing the supernatant, standing at room temperature for 10 min to volatilize the ethanol, and dissolving the precipitate with 40 μL of DEPC treated water when the precipitate becomes transparent; • 2.5.5 RNA concentration was measured and DEPC-treated water was diluted to 100 ng/μL • 2.6 reverse transcription: Kit Takara (PrimeScript RT reagent Kit (Perfect Real Time)

[3] = test system: AN3CA cells; experiment: cell proliferation assay (MTS) in AN3CA cells; assay type: cell-based, human; settings: 10 μM, 48 h
Experimental: • 1. The experimental steps are as follows: • 1.1 AN3CA cell recovery and culture (MEM medium, 10% serum, 1% double antibody); • 1.2 Passages (passage at a ratio of 1:2); • 1.3 Place 96-well plate when the cell status is good, 1×10^4 Well, culture overnight; • culture medium with 10% defatted serum • 1.4 Adding medicine: diluting the final concentration of the drug with a culture medium to 10 μM, and treating for 48 h at 100 μL/well; • culture medium with 10% defatted serum • 1.5 Addition of 2 μL MTS/well, care taken to prevent bubble formation, 490 nm data after 1-4 h

[4] = target: T2, And-1 (Homo sapiens, UniProt O75717); experiment: inhibition of And-1 in OV90 CR cells; assay type: cell-based; design: endogenous in cells; settings: inhibition of And-1, OV90 CR cells
T2 sequence (O75717 1-1129): T1 sequence (O75717 1-1129)

[5] = target: T2, And-1; experiment: inhibition of And-1 in IGROV1 CR cells; assay type: cell-based; design: endogenous in cells; host or cells: IGROV1 CR; settings: inhibition of And-1, IGROV1 CR cells
[6] = target: T2, And-1; experiment: immunoblot analysis of And-1 expression in IGROV1 cells; assay type: cell-based; design: endogenous in cells; host or cells: IGROV1 CR; settings: immunoblot, read-out: IC50 for inhibition of And-1 expression
Experimental: The high IC50 of resveratrol compromises its potential clinical application; therefore, resveratrol was used as a lead compound to screen 12 analogs of resveratrol for potent compounds that can inhibit And-1 (FIG. 14). […] To perform immunoblot analyses, cells were first treated with increasing concentrations of the 12 analogs. After treatment, the cells were harvested and then lysed with RIPA buffer protease inhibitor and phosphatase inhibitor cocktail. Protein concentration was determined by the BCA protein assay. Equal amounts of whole cell lysates were separated on sodium dodecyl sulfate polyacrylamide gel electrophoresis (SDS-PAGE) and transferred onto nitrocellulose membranes. Membranes were then incubated in blocking solution (5% non-fat milk in 20 mM TRIS-HCl, 150 mM NaCl, 0.1% Tween-20) (TBST), followed by incubation with the indicated antibodies at 4° C. overnight. The membranes were then washed in TBST and incubated with HRP-conjugated secondary antibodies for 1 hour at room temperature (21° C.±2° C.). Antibody detection was performed with an enhanced chemiluminescence reaction.

[7] = determination 1, read-out: IC50 (μM) 1
[8] = average of 1 and 2, read-out: IC50 (μM) average
[9] = determination 2, read-out: IC50 (μM) 2

| SMILES | IC50 [1, 7] [µM] | IC50 [1, 8] [µM] | IC50 [1, 9] [µM] | Relative mRNA expression of SCD-1 [2] | further results |
| --- | --- | --- | --- | --- | --- |
| COc1cc2c(cc1O)CC[C@@H]1[C@@H]2CC[C@]2(C)[C@@H](O)CC[C@@H]12 [2-methoxyestradiol] | 1.67 | – | – | – | IC50 (μM) 2 ([1]; determination 2): inactive |
| CC[C@@]1(O)C(=O)OCc2c1cc1n(c2=O)Cc2cc3ccccc3nc2-1 [(S)-(+)-Camptothecin] | 0.73 | – | – | – | IC50 (μM) 2 ([1]; determination 2): inactive |
| CC[n+]1c(/C=C/C=C2/N(C)c3ccccc3C2(C)C)sc2ccccc21 [AC-93253 iodide] | 1.09 | 0.76 | 0.44 | – | – |
| CNc1ccc2oc(C[C@H]3O[C@@]4(CC[C@H]3C)O[C@H]([C@H](C)C(=O)c3ccc[nH]3)[C@H](C)C[C@H]4C)nc2c1C(=O)O [Calcimycin] | 6.1 | 8.32 | 10.5 | – | – |
| COCCOC(=O)C1=C(C)NC(C)=C(C(=O)OC/C=C/c2ccccc2)C1c1cccc([N+](=O)[O-])c1 (centres unmarked) [Cilnidipine] | 22.9 | 21.1 | 19.3 | – | – |
| c1ccc2c(c1)[I+]c1ccccc1-2 [Diphenyleneiodonium chloride] | 0.84 | 0.43 | 0.03 | – | – |
| Nc1ccn([C@@H]2O[C@H](CO)[C@@H](O)C2(F)F)c(=O)n1 [Gemcitabine hydrochloride] | 0.02 | – | – | – | IC50 (μM) 2 ([1]; determination 2): inactive |
| OB1OCc2cc(/C=C/c3cc(C(F)(F)F)cc(C(F)(F)F)c3)ccc21 [IV, (E)-5-(3,5-bis(trifluoromethyl)styryl)benzo[c][1,2]oxaborol-1(3H)-ol] | – | – | – | 0.42 | activity of reducing SCD-1 gene expression (in words) [2]: better than those of BF-175; inhibition of AN3CA cell proliferation (in words) [3]: different degrees of inhibition; IC50 [4]: 57.9 µM; IC50 [5]: 37.6 µM |
| OB1OCc2cc(/C=C/c3cccc(F)c3)ccc21 [IX, (E)-5-(3-fluorostyryl)benzo[c][1,2]oxaborol-1(3H)-ol] | – | – | – | 0.72 | – |
| O=C1C(SCCO)=C(SCCO)C(=O)c2ccccc21 [NSC 95397] | 11.2 | 9.42 | 7.68 | – | – |
| C=CCc1cccc(/C=N/NC(=O)CN2CCN(Cc3ccccc3)CC2)c1O [PAC-1] | 18.8 | 21.3 | 23.8 | – | – |
| CCN(CC)CCOc1ccc(Nc2ncc3cc(-c4c(Cl)cccc4Cl)c(=O)n(C)c3n2)cc1 [PD-166285 hydrate] | – | – | – | – | DC50 [1, 8]: 3.03 µM; DC50 [1, 7]: 3.33 µM; DC50 [1, 9]: 2.73 µM |
| Oc1ccc(C=Cc2cc(O)cc(O)c2)cc1 [Resveratrol] | – | – | – | – | DC50 [6]: 16.7 µM; DC50 [1, 8]: 18.9 µM; DC50 [1, 7]: 14.9 µM; DC50 [1, 9]: 22.9 µM |
| C/C=C(/C)C(=O)O[C@H]1C(C)=C2[C@H]([C@@H]1OC(=O)CCCCCCC)[C@@](C)(OC(C)=O)C[C@H](OC(=O)CCC)[C@@]1(O)[C@H]2OC(=O)[C@@]1(C)O [Thapsigargin] | 13.3 | 6.95 | 0.63 | – | – |
| CC[C@@]1(O)C(=O)OCc2c1cc1n(c2=O)Cc2cc3c(CN(C)C)c(O)ccc3nc2-1 [Topotecan hydrochloride hydrate] | – | – | – | – | DC50 [1, 7]: 0.61 µM; IC50 (μM) 2 ([1]; determination 2): inactive |
| OB1OCc2cc(/C=C/c3ccccc3C(F)(F)F)ccc21 [VI, (E)-5-(2-(trifluoromethyl)styryl)benzo[c][1,2]oxaborol-1(3H)-ol] | – | – | – | 1.03 | – |
| OB1OCc2cc(/C=C/c3ccc(C(F)(F)F)cc3)ccc21 [VII, (E)-5-(4-(trifluoromethyl)styryl)benzo[c][1,2]oxaborol-1(3H)-ol] | – | – | – | 1.07 | – |
| OB1OCc2cc(/C=C/c3cc(F)cc(C(F)(F)F)c3)ccc21 [V] | – | – | – | 0.72 | – |
| OB1OCc2cc(/C=C/c3cccc(Cl)c3)ccc21 [X, (E)-5-(3-chlorostyryl)benzo[c][1,2]oxaborol-1(3H)-ol] | – | – | – | 0.56 | inhibitory effect on Srebp ([2]; human endometrial cancer AN3CA cells): high inhibitory effect; IC50 [4]: 20.6 µM; IC50 [5]: 19.2 µM |
| Cc1cccc(/C=C/c2ccc3c(c2)COB3O)c1 [XI, (E)-5-(3-methylstyryl)benzo[c][1,2]oxaborol-1(3H)-ol] | – | – | – | – | IC50 [4]: 34.3 µM; IC50 [5]: 32.9 µM |
| COc1cccc(/C=C/c2ccc3c(c2)COB3O)c1 [XII, (E)-5-(3-methoxystyryl)benzo[c][1,2]oxaborol-1(3H)-ol] | – | – | – | 0.62 | IC50 [4]: 37.4 µM; IC50 [5]: 34.1 µM |
| OB1OCc2cc(/C=C/c3ccccc3)ccc21 [XIII, (E)-5-styrylbenzo[c][1,2]oxaborol-1(3H)-ol] | – | – | – | 0.71 | IC50 [4]: 45.6 µM; IC50 [5]: 41 µM |
| OB1OCc2cc(Cl)ccc21 [travaborole, reference compound] | – | – | – | 1.08 | activity of reducing SCD-1 gene expression (in words) [2]: do not have the activity of reducing the expression of SCD-1 gene |
